The text below walks through data of patent US5144010A, “Method of producing monoclonal auto-anti-idiotypic antibodies” (The Trustees of Columbia University in the City of New York, priority 1989, dated 1992).

In assay [1] the target is T1, Torpedo AChR (Tetronarce californica, UniProt P02710+P02714+P02718).
T1 construct: purified Torpedo AChR preparation; from tissue; host or cells: Torpedo electric organ (inferred, the usual source of purified Torpedo receptor)
Nature of the assay: Enzyme immunoassay of F8-D5 binding to Torpedo AChR and its inhibition. Here is the method:
(§1) Wells of polystyrene plates (Corning) were then coated with 150 microliters of either 400 ng/ml purified rabbit anti-BisQ (1) in 0.1 M NaHCO3, pH 9.3, or […] purified Torpedo receptor in the same buffer. Coating was accomplished by incubating for 2 h at 37° C. After two washings with 0.01 M phosphate buffer:0.14 M NaCl, pH 7.2, containing 0.05% v/v Tween-20 (PBS-Tween), the wells were exposed to the various concentrations of F8-D5 in PBS-Tween. After incubation at 37° C. for 2h, the wells were washed three times with PBS-Tween and then filled with 200 microliters of 1:1,000 dilution in PBS-Tween of goat anti-mouse immunoglobulin labeled with horseradish -peroxidase (Sigma). After incubation at 37° C. for 1 h, the wells were washed three times with PBS-Tween. Peroxidase was assayed by incubation with o-phenylenediamine dihydrochloride (7 mg in 10 ml 0.1 M citrate-phosphate buffer, pH 4.8, containing 5 microliters of 30% H2 O2) for 10 min. The reaction was stopped with 50 microliters per well of 4 M H2 SO4 and the color read at 492 nm in a Multiskan Titertek apparatus. Values were corrected for a PBS blank which was never higher than 0.150. (The above conditions were not chosen for optimal sensitivity but for speed and convenience.)
(§2) To confirm that the same monoclonal antibody bound receptor and anti-BisQ, reciprocal inhibition experiments were carried. […]

Assay [2] deals with rabbit anti-BisQ. As to the kind of experiment: Enzyme immunoassay of F8-D5 binding to rabbit anti-BisQ and its inhibition. Particulars: read-out: concentration giving 50% inhibition of binding of F8-D5 to rabbit anti-BisQ; stated as a similar concentration. Here is the method: as §1, §2
The target of assay [3] is anti-steroid antibodies. As to the kind of experiment: Competitive inhibition of binding of [3H]TA to rabbit anti-steroid antibodies (serum, affinity purified, Fab fragments). Here is the method: After incubating for 11/2 hrs at room temperature add 1 ml cold 5% charcoal/dextran (dil 1:40 with 0.1% gelatin in PBS). Let stand at 4° C. for 10 mins.
Assay [4] deals with anti-steroid Fab fragments. Nature of the assay: Scatchard analysis of tritiated steroid binding to Fab fragments of affinity purified anti-steroid antibodies. Also on record: species or system rabbit. Particulars: tritiated ligand, read-out: Kd for Fab fragments of the anti-steroid from Scatchard plots. The protocol:
FIG. 5. Scatchard plot of the binding of [^3 H]triamcinolone acetonide to Fab fragments of affinity purified anti-steroid antibodies. Fab fragments (0.227 micrograms) were incubated with increasing concentrations of [^3 H]triamcinolone acetonide (0.4-62.5 nM) in the presence of 0.01M phosphate buffered saline pH 7.4 containing 0.1% gelatin in a total volume of 200 microliters. Total and non-specific binding (50 micromolar triamcinolone acetonide) were determined for each of the [^3 H]triamcinolone acetonide levels and all points were in duplicate. After incubating 1 hr at room temperature, add 1 ml cold 5% charcoal/dextran (diluted 1:40 in 0.01M PBS containing 0.1% gelatin) and let stand on ice for 10 min. Centrifuge down the charcoal/dextran, decant the supernatant into scintillation vials and determine the radioactivity.

The target of assay [5] is T2, partially purified glucocorticoid receptor (Rattus norvegicus, UniProt P06536).
T2 sequence (P06536 1-795): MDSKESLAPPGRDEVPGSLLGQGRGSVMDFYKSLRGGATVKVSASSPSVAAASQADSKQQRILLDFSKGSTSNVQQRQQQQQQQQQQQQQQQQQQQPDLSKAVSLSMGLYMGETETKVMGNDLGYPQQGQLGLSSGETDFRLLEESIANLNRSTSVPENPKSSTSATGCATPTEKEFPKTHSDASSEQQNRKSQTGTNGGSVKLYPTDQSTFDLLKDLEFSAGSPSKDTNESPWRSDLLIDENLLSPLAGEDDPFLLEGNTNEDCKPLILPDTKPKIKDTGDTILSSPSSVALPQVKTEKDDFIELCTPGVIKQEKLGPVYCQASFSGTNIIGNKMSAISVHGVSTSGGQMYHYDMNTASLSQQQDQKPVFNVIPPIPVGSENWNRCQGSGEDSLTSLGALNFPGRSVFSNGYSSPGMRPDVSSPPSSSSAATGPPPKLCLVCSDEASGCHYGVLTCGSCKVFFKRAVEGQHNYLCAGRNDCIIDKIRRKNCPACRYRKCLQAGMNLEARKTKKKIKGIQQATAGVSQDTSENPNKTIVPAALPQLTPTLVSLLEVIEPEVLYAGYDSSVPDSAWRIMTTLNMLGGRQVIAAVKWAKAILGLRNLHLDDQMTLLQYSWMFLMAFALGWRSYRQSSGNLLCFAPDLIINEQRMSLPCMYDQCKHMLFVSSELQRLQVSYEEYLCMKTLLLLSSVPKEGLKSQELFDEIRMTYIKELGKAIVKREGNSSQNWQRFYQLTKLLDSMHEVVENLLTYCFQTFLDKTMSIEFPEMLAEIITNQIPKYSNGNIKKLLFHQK
As to the kind of experiment: ELISA of 8G11-C6 binding to partially purified glucocorticoid receptor and its inhibition. As to conditions: ELISA (FIG. 13). Here is the method:
FIG. 12. […] 200 microliters containing either 1.08 micrograms ( ) or 0.54 micrograms ( ) of a partially purified receptor preparation in 0.1 M NaHCO3 were added to the wells of the polystyrene plastic and incubated overnight at 4° C. […] See methods section for the methodology employed.
FIG. 13. […] 200 microliters containing 0.54 micrograms protein of a partially purified receptor preparation in 0.1 M NaHCO3 pH 9.3 was added to the wells of polystyrene plates. These were incubated for 2 hrs at 37° C. Washed 2× with PBS containing 0.02% Tween. […] See methods for the methodology employed. The inhibitors used were triamcinolone acetonide ( ), rabbit serum albumin ( ) and triamcinolone-RSA ( ).
(In an ELISA, binding on a coated surface is turned into a signal by an enzyme label.)

Assay [6] has as its system anti-steroid Fab fragments. Nature of the assay: ELISA of 8G11-C6 binding to anti-steroid Fab fragments and its inhibition. Also on record: species or system rabbit. As to conditions: inhibitor pre-incubated (FIG. 9, 10). Here is the method: FIG. 9 and 10. […] Controls with no inhibitor were included. […] Blanks with only PBS were included as well. The inhibitors used in FIG. 9 were triamcinolone acetonide ( ), triamcinolone-RSA ( ) and rabbit serum albumin ( ).
FIG. 11. […] The method used was similar to that described in the experimental procedure. […] 200λ of the incubation mixture was then added to microtiter wells previously coated with 10 ng anti-steroid Fab fragments and incubated for 2 hrs at 37° C.
The presence of anti-idiotypic antibodies in the hybridoma culture medium were assayed by a double antibody sandwich ELISA. […] After washing twice with 0.01M phosphate buffer - 0.14M NaCl, pH 7.4, containing 0.05% Tween (PBS-tween), the culture medium from the hybridomas was added and incubated at 37° C. for 2 hrs. The wells were washed three times with PBS-tween and 200 microliters of 1:3,000 dilution in PBS-tween of goat anti-mouse IgM-IgG horseradish peroxidase (Tago) was added. After incubating 1 hr at 37° C., the wells were washed three times with PBS-tween and 200 microliters substrate (7 mg o-phenylenediamine dichloride in 10 ml 0.1 M citrate-phosphate buffer, pH 4.8 containing 5 microliters of 30% H2 O2) was added. Depending on the intensity of the color, the reaction was stopped after 5-10 min by the addition of 50 microliters 8N H2 SO4 and the OD determined (Titretek) at 492 nm.

The target of assay [7] is T3, glucocorticoid receptor (Rattus norvegicus, UniProt P06536).
T3 sequence (P06536 1-795): T2 sequence (P06536 1-795)
Nature of the assay: biochemical.
Method: (§3) Incubate in a total volume of 500 microliters, for 2 hrs at 4° C., 20 mM HEPES buffer containing 50 mM NaCl, 1 mM EDTA, 10% glycerol 0.1 mM DTT pH 7.6, 10 nM [^3 H]TA and 200 microliters rat liver cytosol. Add 250 microliters 5% charcoal/dextran suspension and after 10 min centrifuge and determine the radioactivity in 200 λ aliquot.
(§4) The results tabulated in table I below represents the amount of unlabeled steroid that can displace 50% binding of 1×10^-8 M [^3 H]TA. Binding in the absence of competing steroid was taken as 100%.
(§5) Table I: Competitive inhibition of binding of [^3 H] triamcinolone to
(§6) glucocorticoid receptor included 100 ml of rat liver cytosol. 10^-8 M
(§7) [^3 H]TA and increasing concentrations of steroid in a total volume o
(§8) 200 ml. After incubating for 2 hrs at 4° C., 100 5%
(§9) charcoal/dextran was added. Let stand for 5 mins at 4° C. Make up
(§10) to 1 ml with PBS and after 5 mins centrifuge down charcoal. Decant
(§11) supernatant into scintillation vials. Add 10 ml hydrofluor and count.

Assay [8] has as its target T3, glucocorticoid receptor. Nature of the assay: Competitive inhibition of binding of [3H]triamcinolone acetonide to glucocorticoid receptor in rat liver cytosol. As to conditions: apparent Kd of the glucocorticoid receptor, competitive binding with [3H]TA as tracer (FIG. 6, Table I).
Method: as §3, §4, §5, §6, §7, §8, §9, §10, §11
[9] abbreviates: affinity purified anti-steroid 1.3 micrograms, 1×10^-8 M [3H]TA, read-out: Affinity purified anti-steroid: amount of unlabeled steroid that can displace 50% binding of [3H]TA.
[10] abbreviates: anti-steroid Fab fragments 0.18 micrograms, 1×10^-8 M [3H]TA, read-out: Rabbit serum 541 Fab fragments: amount of unlabeled steroid that can displace 50% binding of [3H]TA.
Where [11] appears, read: unprocessed rabbit serum 540 dil 1:1000, 1×10^-8 M [3H]TA, read-out: Rabbit Serum 540 Unprocessed: amount of unlabeled steroid that can displace 50% binding of [3H]TA.
The mark [12] stands for this setting: unprocessed rabbit serum 540 dil 1:1000, 1×10^-8 M [3H]TA.

Read-outs that look alike come from different tables or passages of the source.

T1 sequence (P02710 25-461): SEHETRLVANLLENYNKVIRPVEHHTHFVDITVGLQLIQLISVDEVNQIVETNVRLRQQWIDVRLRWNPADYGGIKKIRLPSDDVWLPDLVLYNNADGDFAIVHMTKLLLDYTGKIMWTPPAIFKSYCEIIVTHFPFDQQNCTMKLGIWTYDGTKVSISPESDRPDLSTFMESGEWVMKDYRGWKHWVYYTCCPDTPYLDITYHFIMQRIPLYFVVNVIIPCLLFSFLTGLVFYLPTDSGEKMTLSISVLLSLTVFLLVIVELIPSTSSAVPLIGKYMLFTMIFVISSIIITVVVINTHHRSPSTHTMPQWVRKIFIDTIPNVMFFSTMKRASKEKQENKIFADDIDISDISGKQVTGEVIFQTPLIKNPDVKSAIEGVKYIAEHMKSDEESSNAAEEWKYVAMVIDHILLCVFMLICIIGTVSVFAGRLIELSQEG
T1 sequence (P02712 25-493 partner): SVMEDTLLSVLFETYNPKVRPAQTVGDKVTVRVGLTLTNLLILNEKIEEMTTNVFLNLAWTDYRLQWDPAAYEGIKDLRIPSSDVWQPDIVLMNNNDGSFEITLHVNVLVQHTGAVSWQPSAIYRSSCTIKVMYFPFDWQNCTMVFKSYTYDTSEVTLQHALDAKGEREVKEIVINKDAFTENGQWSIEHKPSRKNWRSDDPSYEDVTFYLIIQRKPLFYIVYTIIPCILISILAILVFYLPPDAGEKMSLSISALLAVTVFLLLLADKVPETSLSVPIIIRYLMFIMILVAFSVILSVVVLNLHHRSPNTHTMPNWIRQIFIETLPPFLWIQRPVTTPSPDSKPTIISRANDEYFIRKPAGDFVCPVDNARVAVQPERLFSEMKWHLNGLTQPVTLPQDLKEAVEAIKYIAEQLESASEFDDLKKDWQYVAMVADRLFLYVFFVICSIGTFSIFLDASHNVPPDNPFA
T1 sequence (P02714 18-506): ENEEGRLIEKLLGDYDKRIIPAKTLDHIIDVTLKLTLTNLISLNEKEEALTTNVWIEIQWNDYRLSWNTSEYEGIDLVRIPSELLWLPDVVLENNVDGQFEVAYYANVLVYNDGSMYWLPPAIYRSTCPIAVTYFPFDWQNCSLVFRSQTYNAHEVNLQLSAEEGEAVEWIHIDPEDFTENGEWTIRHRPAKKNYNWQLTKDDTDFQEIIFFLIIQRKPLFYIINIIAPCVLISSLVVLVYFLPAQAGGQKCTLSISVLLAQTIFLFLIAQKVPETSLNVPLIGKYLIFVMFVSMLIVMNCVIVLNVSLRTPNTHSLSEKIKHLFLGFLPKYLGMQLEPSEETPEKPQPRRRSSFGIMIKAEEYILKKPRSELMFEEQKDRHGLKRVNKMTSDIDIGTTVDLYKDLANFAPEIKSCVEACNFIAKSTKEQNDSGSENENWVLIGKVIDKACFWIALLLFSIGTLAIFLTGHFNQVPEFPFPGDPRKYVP
T1 sequence (P02718 22-522): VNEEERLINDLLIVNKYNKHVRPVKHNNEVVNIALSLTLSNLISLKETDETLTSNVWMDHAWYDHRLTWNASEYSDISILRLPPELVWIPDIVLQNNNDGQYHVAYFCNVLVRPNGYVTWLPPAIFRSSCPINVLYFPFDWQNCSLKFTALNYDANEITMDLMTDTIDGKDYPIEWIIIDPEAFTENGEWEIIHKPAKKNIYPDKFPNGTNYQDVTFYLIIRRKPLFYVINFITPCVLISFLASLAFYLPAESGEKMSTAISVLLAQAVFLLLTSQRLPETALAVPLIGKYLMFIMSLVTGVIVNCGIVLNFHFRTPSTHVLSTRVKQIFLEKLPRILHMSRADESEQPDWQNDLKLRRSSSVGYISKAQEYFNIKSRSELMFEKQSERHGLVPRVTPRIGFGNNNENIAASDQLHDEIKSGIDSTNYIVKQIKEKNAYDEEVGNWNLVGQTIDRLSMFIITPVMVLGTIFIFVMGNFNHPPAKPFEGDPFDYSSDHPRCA

For `C[N+](C)(C)Cc1cccc(/N=N/c2cccc(C[N+](C)(C)C)c2)c1` [BisQ, trans-3,3'-bis(α-trimethylammonium)azotoluene], the IC50 was 40 µM in assay [1] and roughly 40 µM in assay [2].

As to `C[C@]12C[C@H](O)[C@H]3[C@@H](CCC4=CC(=O)CC[C@@]43C)[C@@H]1CC[C@@H]2C(=O)CO` [Corticosterone], the IC50 was 100 µM in assay [3] (setting [9]), 100 µM in assay [3] (setting [10]) and 6.3 µM in assay [3] (setting [11]).

Take `C[C@@H]1C[C@H]2[C@@H]3CCC4=CC(=O)C=C[C@]4(C)[C@@]3(F)[C@@H](O)C[C@]2(C)[C@@]1(O)C(=O)CO` [Dexamethasone]: the Kd in assay [4] came out at 0.15 µM. For the same compound, the IC50 in assay [3] (setting [9]) came to 0.62 µM; in assay [3] (setting [10]) it was 0.63 µM; in assay [3] (setting [11]) it was 0.12 µM.

On to `C[C@]12CCC(=O)C[C@@H]1CC[C@@H]1[C@@H]2CC[C@]2(C)[C@@H](O)CC[C@@H]12` [Dihydrotestosterone], for which the “Rabbit Serum 540 Unprocessed: amount of unlabeled steroid that can displace 50% binding of [3H]TA” value in assay [3] (setting [12]) is given as “no effect”.

As to `C[C@]12CCC(=O)C=C1CC[C@@H]1[C@@H]2[C@@H](O)C[C@@]2(C)[C@H]1CC[C@]2(O)C(=O)CO` [Hydrocortisone], the IC50 came out at 100 µM in assay [3] (setting [9]), 100 µM in assay [3] (setting [10]) and 5 µM in assay [3] (setting [11]).

With `CC(=O)[C@H]1CC[C@H]2[C@@H]3CCC4=CC(=O)CC[C@]4(C)[C@H]3CC[C@]12C` [Progesterone], the IC50 in assay [3] (setting [9]), in assay [3] (setting [10]) and in assay [3] (setting [11]) was 100 µM throughout.

Take `C[C@]12CC[C@H]3[C@@H](CCC4=CC(=O)CC[C@@]43C)[C@@H]1CC[C@@H]2O` [Testosterone]: the “Affinity purified anti-steroid: amount of unlabeled steroid that can displace 50% binding of [3H]TA” value in assay [3] (affinity purified anti-steroid 1.3 micrograms, 1×10^-8 M [3H]TA) is listed as “not inhibited”. In addition, the “Rabbit serum 541 Fab fragments: amount of unlabeled steroid that can displace 50% binding of [3H]TA” value in assay [3] (anti-steroid Fab fragments 0.18 micrograms, 1×10^-8 M [3H]TA) is listed as “not inhibited”. The “Rabbit Serum 540 Unprocessed: amount of unlabeled steroid that can displace 50% binding of [3H]TA” value in assay [3] (setting [12]) was “not inhibited”. For the same compound, the “effect on the binding of 8G11-C6 to partially purified glucocorticoid receptor” value in assay [5] was “only a slight inhibitory effect”. Further, the “effect on the binding of 8G11-C6 to anti-steroid Fab fragments” value (from here on “effect … to anti-steroid Fab fragments”) in assay [6] is “slight activation of binding”.

`C[C@]12C=CC(=O)C=C1CC[C@H]1[C@@H]3C[C@@H](O)[C@](O)(C(=O)CO)[C@@]3(C)C[C@H](O)[C@@]12F` [Triamcinolone, 9-fluoro-11β, α16 , 17, 21-tetrahydroxypregna-1,4-diene-3, 20-dione]: the IC50 was 0.015 µM in assay [3] (setting [9]), 0.015 µM in assay [3] (setting [10]), 0.0032 µM in assay [3] (setting [11]) and 0.005 µM in assay [7]. Also, in assay [6], the “effect … to anti-steroid Fab fragments” value is on record as “slight activation of binding”.

`C[C@]12CC[C@@H]3c4ccc(O)cc4CC[C@H]3[C@@H]1CC[C@@H]2O` [estradiol-17β]: the “effect on the binding of 8G11-C6 to partially purified glucocorticoid receptor” value in assay [5] is recorded as “no effect”. Besides, the “effect … to anti-steroid Fab fragments” value in assay [6] was “slight activation of binding”.

Regarding `CC1(C)O[C@@H]2C[C@H]3[C@@H]4CCC5=CC(=O)C=C[C@]5(C)[C@@]4(F)[C@@H](O)C[C@]3(C)[C@]2(C(=O)CO)O1` [triamcinolone acetonide], the Kd amounted to 0.0032 µM in assay [3] (competitive binding with [3H]TA as tracer (FIG. 6, Table I), read-out: apparent Kd of the anti-steroid in unprocessed rabbit serum); 0.005 µM in assay [8]; 0.015 µM in assay [7]. Moreover, the “effect … to anti-steroid Fab fragments” value in assay [6] is “did not affect”.

With “rabbit serum albumin: carrier protein tested alone as inhibitor”, the “effect … to anti-steroid Fab fragments” value in assay [6] was “did not affect”.
